Test results taken from paper PMC12481576, “Barbituric Acid Derivatives as Covalent Inhibitors of Leishmania braziliensis Dihydroorotate Dehydrogenase” (Journal of Medicinal Chemistry, 2025).
Where two headings read alike, the source gives them in different places.

Columns and labels:
[1] = Cell viability / cytotoxicity assay (PrestoBlue, 72 h); type: cell-based; details: human; THP-1 cell line, 72 h, max 200 μM; read-out: CC50
Protocol: THP-1 cells (American Type Cell Collection, #TIB-202) were acquired in 2019 and stored frozen in liquid nitrogen. The cells were then maintained in RPMI 1640 (Thermo Fisher Scientific, #S31800–022) at 37 °C in a 5% CO2 atmosphere and routinely tested for Mycoplasma contamination by PCR using the primers 5′-[…] and 5′-[…]. To test the toxicity of compounds, 5000 cells were added to 96-well plates with a final volume of 80 μL centrifuged at 400g for 2 min and incubated with 150 ng/mL of phorbol myristate acetate (Merck, #P8139) for 48 h. The medium was replaced, and after 24 h, the compounds were added and tested at decreasing concentrations starting from 200 μM (10 μL/well). After 72 h of incubation, 10 μL of PrestoBlue Cell Viability Reagent (Thermo Fisher Scientific, #A13262) was added per well. After adding the reagent, the cells were incubated for 2 h at 37 °C in a 5% CO2 atmosphere, and fluorescence readings were performed using the SpectraMax M3 reader (excitation at 560 nm and emission at 590 nm).

LbDHODH [2] = target: T1, LbDHODH (Leishmania braziliensis, UniProt E9AI53); test: biochemical; details: for IC50: LbDHODH; for inhibition at 100 µM: read-out: enzyme inhibition
Protocol: To assess the ability of compounds 2a–2i to inhibit LbDHODH via covalent bond formation with Cys^131, we initially screened them at a concentration of 100 μM under two conditions: with and without a 4-h preincubation with the enzyme.
The experiments were performed in a 96-well microplate reader (SpectraMax Plus 384, Molecular Devices, USA), containing the […] of the buffer 60 mM DCIP, 50 mM Tris pH 8.15, 150 mM KCl, 0.1% Triton X-100, 50 μM DHO and 10 μM of LbDHODH at 165 nM. The reaction was monitored every 3 s at 610 nm over a period of 60 s, in triplicate, for the control and each concentration of the inhibitor. All assays were performed without incubation (0h) and with 4-h preincubation of the inhibitor with LbDHODH, using 5% DMSO (v/v) as control. […]. […] The resulting kobs values were plotted as a function of inhibitor concentration, and the data in the initial linear region was fit to determine the slope, which is kinact/KI. All regressions were performed with GraphPad Prism 9.

HsDHODH = target: T2, HsDHODH (Homo sapiens, UniProt Q02127); test: Selectivity assay: HsDHODH single-dose inhibition (DCIP reduction); type: biochemical
T2 construct: made in house
Protocol: […]. This finding highlights the potential of barbituric acid derivatives as selective inhibitors of LbDHODH.
Human DHODH expression and purification were conducted following a protocol previously established in our laboratory. The purification was carried out by affinity chromatography on a Ni-NTA Agarose column (Qiagen[…] Cat. No. 30210). […] The reaction was performed in triplicate, initiated by adding 195 μL of reaction buffer to 5 μL of HsDHODH protein solution for a final concentration of 20 nM enzyme. As a blank, 195 μL of reaction buffer was added to 5 μL of Buffer A. The reaction was monitored at 610 nm every 3 s over 60 s. As a control, 5 μL of enzyme was added to 195 μL of reaction medium without compound. Enzymatic velocity was calculated, and the percentage of relative enzymatic activity was determined relative to the control.

[3] = tested on: Leishmania braziliensis promastigotes; test: Leishmanicidal activity, promastigote growth (SYBR Green, 72 h); type: cell-based, Leishmania (V.) braziliensis (MHOM/BR/1975/M2904); details: Leishmania braziliensis, L. braziliensis promastigotes, max 200 μM
Protocol: The cultures were adjusted to 4 × 10^6 parasites per mL, and 50 μL of each culture was added on a test plate with 384 wells (Corning, #CLS3658), along with the controls and compounds to be tested. Previously diluted compounds in DMSO were added to plates in decreasing concentrations, with a maximum concentration of 200 μM. Parasites were exposed to a final concentration of DMSO in various dilutes (final = 0.5%), and the culture medium was used as the control for the experiment. […] After adding the lysis buffer, the plates were incubated in the dark for 2 h with gentle shaking. The readings were done using a SpectraMax M3 reader (excitation at 485 nm and emission at 535 nm).

LbDHODH [4] = target: T1, LbDHODH; test: Kinact/KI determination from LbDHODH progress curves (kobs vs inhibitor concentration); type: biochemical
Excerpt: The Kinact/Ki ratio is a key parameter for evaluating the potency of covalent inhibitors, as it quantitatively measures both their reactivity and affinity for the target enzyme. This parameter integrates two crucial aspects: KI, which reflects the inhibitor’s binding affinity, and Kinact, which describes the rate at which the covalent bond is formed. […] Therefore, this ratio is essential for ranking covalent inhibitors, optimizing their potency, and guiding structure-based drug design.
The experiments were performed in a 96-well microplate reader (SpectraMax Plus 384, Molecular Devices, USA), containing the […] of the buffer 60 mM DCIP, 50 mM Tris pH 8.15, 150 mM KCl, 0.1% Triton X-100, 50 μM DHO and 10 μM of LbDHODH at 165 nM. The reaction was monitored every 3 s at 610 nm over a period of 60 s, in triplicate, for the control and each concentration of the inhibitor. All assays were performed without incubation (0h) and with 4-h preincubation of the inhibitor with LbDHODH, using 5% DMSO (v/v) as control. […] To determine the IC50 values, the activity percentage data were fitted as a function of the concentration logarithm by nonlinear regression analysis (variable hillslope) using Prism 9.0 software (GraphPad Software, USA). […] The resulting kobs values were plotted as a function of inhibitor concentration, and the data in the initial linear region was fit to determine the slope, which is kinact/KI. All regressions were performed with GraphPad Prism 9.

[5] = 0 h, pH 8.15, read-out: LbDHODH Activity±SD (%)
[6] = 4 h, pH 8.15, read-out: LbDHODH Activity±SD (%)
[7] = IC50 0 h, without preincubation
[8] = read-out: Single dose (0h) % activity
[9] = read-out: Single dose (4h) % activity

T2 sequence (Q02127 whole entry): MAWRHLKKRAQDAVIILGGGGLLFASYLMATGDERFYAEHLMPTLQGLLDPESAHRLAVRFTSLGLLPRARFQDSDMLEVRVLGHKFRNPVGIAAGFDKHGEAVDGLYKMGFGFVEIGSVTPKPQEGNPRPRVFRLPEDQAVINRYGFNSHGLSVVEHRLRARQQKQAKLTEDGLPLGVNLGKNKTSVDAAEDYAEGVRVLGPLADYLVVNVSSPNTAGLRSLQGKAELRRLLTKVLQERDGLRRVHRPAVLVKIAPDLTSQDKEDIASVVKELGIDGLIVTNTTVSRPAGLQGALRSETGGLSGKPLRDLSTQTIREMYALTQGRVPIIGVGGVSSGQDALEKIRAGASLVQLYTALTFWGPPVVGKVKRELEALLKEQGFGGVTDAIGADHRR
T1 sequence (E9AI53 entry or part of it): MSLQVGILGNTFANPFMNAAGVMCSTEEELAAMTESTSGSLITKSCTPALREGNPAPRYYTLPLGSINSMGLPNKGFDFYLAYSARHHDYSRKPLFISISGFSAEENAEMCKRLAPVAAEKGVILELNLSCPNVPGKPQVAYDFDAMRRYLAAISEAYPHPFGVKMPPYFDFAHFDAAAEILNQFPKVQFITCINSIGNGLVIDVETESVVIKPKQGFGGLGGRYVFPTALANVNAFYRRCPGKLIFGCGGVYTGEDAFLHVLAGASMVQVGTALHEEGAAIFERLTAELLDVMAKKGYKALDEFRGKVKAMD

O=C1NC(=O)C(=Cc2ccccc2)C(=O)N1 [2a, 5-Benzylidenepyrimidine-2,4,6(1H,3H,5H)-trione]
CC50 at 72 h [1]: > 200 µM | activity at 0.195312 µM (LbDHODH [2]; [5]): 108 ± 9% | activity at 0.390625 µM (LbDHODH [2]; [5]): 106 ± 13% | activity at 0.78125 µM (LbDHODH [2]; [5]): 110 ± 8% | activity at 1.5625 µM (LbDHODH [2]; [5]): 103 ± 8% | activity at 3.125 µM (LbDHODH [2]; [5]): 106 ± 8% | activity at 6.25 µM (LbDHODH [2]; [5]): 88 ± 10% | activity at 12.5 µM (LbDHODH [2]; [5]): 73 ± 9% | activity at 25 µM (LbDHODH [2]; [5]): 60 ± 9% | activity at 50 µM (LbDHODH [2]; [5]): 54 ± 9% | activity at 100 µM (LbDHODH [2]; [5]): 36 ± 5% | activity at 200 µM (LbDHODH [2]; [5]): 27 ± 9% | activity at 400 µM (LbDHODH [2]; [5]): 20 ± 2% | activity at 0.195312 µM (LbDHODH [2]; [6]): 110 ± 16% | activity at 0.390625 µM (LbDHODH [2]; [6]): 92 ± 13% | activity at 0.78125 µM (LbDHODH [2]; [6]): 91 ± 6% | activity at 1.5625 µM (LbDHODH [2]; [6]): 84 ± 15% | activity at 3.125 µM (LbDHODH [2]; [6]): 74 ± 10% | activity at 6.25 µM (LbDHODH [2]; [6]): 54 ± 4% | activity at 12.5 µM (LbDHODH [2]; [6]): 55 ± 5% | activity at 25 µM (LbDHODH [2]; [6]): 44 ± 3% | activity at 50 µM (LbDHODH [2]; [6]): 29 ± 10% | activity at 100 µM (LbDHODH [2]; [6]): 21 ± 1% | activity at 200 µM (LbDHODH [2]; [6]): 5 ± 1% | activity at 400 µM (LbDHODH [2]; [6]): 6 ± 2% | IC50 (LbDHODH [2]; [7]): 56 ± 5 µM | IC50 (LbDHODH [2]; IC50 4 h, 4-h preincubation): 13 ± 2 µM | activity at 100 µM (LbDHODH [2]; [8]): 11 ± 9% | activity at 100 µM (LbDHODH [2]; [9]): 3.5 ± 0.2% | inhibition at 100 µM (LbDHODH [2]): 96.5% | activity at 100 µM (HsDHODH; [8]): 87 ± 10% | activity at 100 µM (HsDHODH; [9]): 79 ± 8% | EC50 [3]: > 200 µM | Kobs (LbDHODH [4]; inhibitor 0.390625 µM): 0.003884 ± 0.002 s⁻¹ | Kobs (LbDHODH [4]; inhibitor 0.78125 µM): 0.003327 ± 0.002 s⁻¹ | Kobs (LbDHODH [4]; inhibitor 1.5625 µM): 0.003467 ± 0.002 s⁻¹ | Kobs (LbDHODH [4]; inhibitor 3.125 µM): 0.003356 ± 0.002 s⁻¹ | Kobs (LbDHODH [4]; inhibitor 6.25 µM): 0.003415 ± 0.002 s⁻¹ | Kobs (LbDHODH [4]; inhibitor 12.5 µM): 0.003372 ± 0.002 s⁻¹ | Kobs (LbDHODH [4]; inhibitor 25 µM): 0.003515 ± 0.002 s⁻¹ | Kobs (LbDHODH [4]; inhibitor 50 µM): 0.003742 ± 0.001 s⁻¹ | Kobs (LbDHODH [4]; inhibitor 100 µM): 0.004728 ± 0.001 s⁻¹ | Kobs (LbDHODH [4]; inhibitor 200 µM): 0.006479 ± 0.003 s⁻¹ | kinact/KI (LbDHODH [4]; slope of kobs vs inhibitor concentration): 17 M⁻¹ s⁻¹

O=C1NC(=O)C(=Cc2cccc(O)c2)C(=O)N1 [2g, 5-(3-Hydroxybenzylidene)pyrimidine-2,4,6(1H,3H,5H)-trione]
CC50 at 72 h [1]: 76 ± 12 µM | activity at 0.78125 µM (LbDHODH [2]; [5]): 90 ± 9% | activity at 1.5625 µM (LbDHODH [2]; [5]): 106 ± 12% | activity at 3.125 µM (LbDHODH [2]; [5]): 78 ± 13% | activity at 6.25 µM (LbDHODH [2]; [5]): 106 ± 15% | activity at 12.5 µM (LbDHODH [2]; [5]): 101 ± 10% | activity at 25 µM (LbDHODH [2]; [5]): 82 ± 17% | activity at 50 µM (LbDHODH [2]; [5]): 63 ± 8% | activity at 100 µM (LbDHODH [2]; [5]): 45 ± 5% | activity at 200 µM (LbDHODH [2]; [5]): 29 ± 3% | activity at 400 µM (LbDHODH [2]; [5]): 21 ± 2% | activity at 0.78125 µM (LbDHODH [2]; [6]): 88 ± 8% | activity at 1.5625 µM (LbDHODH [2]; [6]): 72 ± 9% | activity at 3.125 µM (LbDHODH [2]; [6]): 77 ± 13% | activity at 6.25 µM (LbDHODH [2]; [6]): 75 ± 10% | activity at 12.5 µM (LbDHODH [2]; [6]): 58 ± 5% | activity at 25 µM (LbDHODH [2]; [6]): 36 ± 4% | activity at 50 µM (LbDHODH [2]; [6]): 23 ± 3% | activity at 100 µM (LbDHODH [2]; [6]): 12.1 ± 2% | activity at 200 µM (LbDHODH [2]; [6]): 7.1 ± 2% | activity at 400 µM (LbDHODH [2]; [6]): 5.4 ± 3% | IC50 (LbDHODH [2]; [7]): 90 ± 10 µM | IC50 (LbDHODH [2]; IC50 4 h, 4-h preincubation): 13 ± 1 µM | activity at 100 µM (LbDHODH [2]; [8]): 22 ± 4% | activity at 100 µM (LbDHODH [2]; [9]): 8 ± 2% | inhibition at 100 µM (LbDHODH [2]): 90 to 93% | activity at 100 µM (HsDHODH; [8]): 101 ± 11% | activity at 100 µM (HsDHODH; [9]): 96 ± 9% | EC50 [3]: > 200 µM | Kobs (LbDHODH [4]; inhibitor 0.390625 µM): 0.003649 ± 0.003 s⁻¹ | Kobs (LbDHODH [4]; inhibitor 0.78125 µM): 0.003674 ± 0.003 s⁻¹ | Kobs (LbDHODH [4]; inhibitor 1.5625 µM): 0.00383 ± 0.002 s⁻¹ | Kobs (LbDHODH [4]; inhibitor 3.125 µM): 0.003621 ± 0.002 s⁻¹ | Kobs (LbDHODH [4]; inhibitor 6.25 µM): 0.003878 ± 0.002 s⁻¹ | Kobs (LbDHODH [4]; inhibitor 12.5 µM): 0.004049 ± 0.002 s⁻¹ | Kobs (LbDHODH [4]; inhibitor 25 µM): 0.004549 ± 0.002 s⁻¹ | Kobs (LbDHODH [4]; inhibitor 50 µM): 0.005211 ± 0.002 s⁻¹ | Kobs (LbDHODH [4]; inhibitor 100 µM): 0.007035 ± 0.001 s⁻¹ | Kobs (LbDHODH [4]; inhibitor 200 µM): 0.01421 ± 0.003 s⁻¹ | Kobs (LbDHODH [4]; inhibitor 400 µM): 0.01927 ± 0.006 s⁻¹
